Assay: Solubility determination in pure acetonitrile by mass measurement
Assay type: physicochemical
Procedure: The solubility of the compounds in pure acetonitrile was determined by the mass measurement method described previously. Saturated solutions of each compound were prepared and filtered to remove any undissolved material. Afterwards, 3 mL of each solution were taken and added to previously weighed vials (the measurement was repeated three times for each solution, i.e. 3 vials for each solution). The vials were then stored open in a nitrogen-filled glove box to allow the slow evaporation of the solvent. After 10 days, acetonitrile was evaporated from all vials, leaving only the previously dissolved solid. The vials were then re-weighed and the mass of the solid was determined by subtracting the mass of the respective empty vial. The concentration of the compound was calculated from the mass of the dissolved solid and the volume of the sample placed into the vial.
The solubilities of 1-4 were examined in pure CH3CN using the mass measurement method.

c1ccc(N(c2ccccc2)c2ccc(N(c3ccccc3)c3ccccc3)cc2)cc1 [A, N,N,N′,N′-Tetraphenyl-1,4-phenylenediamine, reference compound]
solubility: virtually insoluble
